Measurements from US4201843A, “Process for manufacturing tylosin derivatives” (Sanraku Ocean Co., Ltd., priority 1975, dated 1980).
In brackets after ≈: the same amount, converted by molar mass.

Columns and labels:
[1] = test system: Bacillus cereus ATCC 9634; test: minimum growth-inhibitory concentration; format: cell-based; conditions: ATCC9634
Method: (§1) The antimicrobial spectra of new tylosin derivatives of this invention are shown in Table 2 by listing the minimum growth inhibitory concentrations (MIC, mcg/ml). […] The toxicity of these compounds was tested in animals by intravenous administration, and the LD50 values in mice are more than 400 mg/kg with all compounds. In therapeutical experiments with mice manually infected by Staphilococcus aureus SMITH, the ED50 values were less than 50 mg/kg (p.o.) with all said tylosin derivatives.

[2] = test system: Bacillus megaterium NRRL B-938; test: minimum growth-inhibitory concentration; format: cell-based; conditions: Priestia megaterium, NRRLB938
Method: as §1

[3] = test system: Bacillus subtilis ATCC 6633; test: minimum growth-inhibitory concentration; format: cell-based; conditions: ATCC6633
Method: as §1

[4] = test system: Candida albicans IAM 4905; test: minimum growth-inhibitory concentration; format: cell-based; conditions: IAM4905
Method: as §1

[5] = test system: Candida tropicalis IAM 4924; test: minimum growth-inhibitory concentration; format: cell-based; conditions: IAM4924
Method: as §1

[6] = test system: Corynebacterium bovis 1810; test: minimum growth-inhibitory concentration; format: cell-based
Method: as §1

[7] = test system: Escherichia coli (National Institute of Health); test: minimum growth-inhibitory concentration; format: cell-based
Method: as §1

[8] = test system: Micrococcus flavus I; test: minimum growth-inhibitory concentration; format: cell-based
Method: as §1

[9] = test system: Mycobacterium smegmatis ATCC 607; test: minimum growth-inhibitory concentration; format: cell-based; conditions: Mycolicibacterium smegmatis, ATCC607
Method: as §1

[10] = test system: Proteus morganii (The Institute for Infectious Diseases); test: minimum growth-inhibitory concentration; format: cell-based; conditions: Morganella morganii
Method: as §1

[11] = test system: Pseudomonas fluorescens NIHJB 254; test: minimum growth-inhibitory concentration; format: cell-based; conditions: NIHJB254
Method: as §1

[12] = test system: Sarcina lutea ATCC 9341; test: minimum growth-inhibitory concentration; format: cell-based; conditions: Micrococcus luteus, ATCC9341
Method: as §1

[13] = test system: Staphylococcus aureus FAD209P; test: minimum growth-inhibitory concentration; format: cell-based; conditions: read-out: minimum growth-inhibitory concentration (MIC)
Method: as §1

[14] = test system: Staphylococcus aureus SMITH; test: minimum growth-inhibitory concentration; format: cell-based
Method: as §1

[15] = test system: Staphylococcus aureus MS 8710; test: minimum growth-inhibitory concentration; format: cell-based; conditions: MS8710; Staphylococcus aureus MS 8710, drug resistant strain
Method: as §1
(§2) The strains marked * in Table 2 are the drug resistant strains isolated from patients, namely, Staphilococcus aureus MS-9610 which is resistant to penicillin, tetracycline, erythromycin, leucomycin, spiramycin, josamycin and tylosin, Staphilococcus aureus MS-8710 which is resistant to penicillin, tetracycline, erythromycin, leucomycin and tylosin, and Streptococcus pyogenes MH 771 which is resistant to erythromycin, oleandomycin, leucomycin and tylosin.

[16] = test system: Staphylococcus aureus MS 9610; test: minimum growth-inhibitory concentration; format: cell-based; conditions: MS9610; Staphylococcus aureus MS 9610, drug resistant strain
Method: as §1, §2

[17] = test system: Streptococcus pyogenes MH 771; test: minimum growth-inhibitory concentration; format: cell-based; conditions: MH771, read-out: minimum growth-inhibitory concentration (MIC)
Method: as §1
(broth-dilution method)
as §2

[18] = test system: drug resistant strains; test: antimicrobial activity against drug resistant strains; format: cell-based; conditions: strains marked * in Table 2
Text: One of the particular advantages of the said tylosin derivatives over known macrolide antibiotics is their distinct antimicrobial activity against drug resistant bacteria.
as §2

[19] = solubility in solvents; format: physicochemical; conditions: for solubility in lower alcohols, ketones, ethers, esters, benzene and toluene: e.g. ethanol, acetone, ethyl ether, ethyl acetate
Text: (§3) The physicochemical analysis and deterimations included elementary analysis, melting point, specific rotatory power, ultraviolet spectrum, infrared spectrum, magnetic nuclear resonance (NMR), C^13 -NMR, mass spectrum (chemical ionization), the release of organic acids under alkaline conditions (gas chromatographical detection), solubility in solvents, color development reaction, basicity of the compounds, appearance and crystalline form. The molecular weight was obtained as QM^+ (Quasi Molecular ion) by chemically-ionized mass spectra analysis.
(§4) (2) the crystals obtained from the solvents in (13) were used for the tests in (1)-(12), and […]

[20] = basicity of the compounds (alkalinity); format: physicochemical
Text: as §3, §4

Row | Structure (SMILES) | MIC [1] [µg/mL] | MIC [2] [µg/mL] | MIC [3] [µg/mL] | MIC [4] [µg/mL] | MIC [5] [µg/mL] | MIC [6] [µg/mL] | MIC [7] [µg/mL] | MIC [8] [µg/mL] | MIC [9] [µg/mL] | MIC [10] [µg/mL] | MIC [11] [µg/mL] | MIC [12] [µg/mL] | MIC [13] [µg/mL] | MIC [14] [µg/mL] | MIC [15] [µg/mL] | MIC [16] [µg/mL] | MIC [17] [µg/mL] | solubility in acidic water [19] | solubility in alkaline water [19] | solubility in lower alcohols, ketones, ethers, esters, benzene and toluene [19] | other results
1 | CCCC(=O)OC1C(C)OC(OC2C(C)OC(OC3C(CC=O)CC(C)C(=O)C=CC(C)=CC(COC4OC(C)C(O)C(OC)C4OC)C(CC)OC(=O)CC(OC(C)=O)C3C)C(O)C2N(C)C)CC1(C)O (stereo not shown) [3-acetyl-4"-n-butyryltylosin] | 0.98 (≈ 0.953 µM) | 0.49 (≈ 0.477 µM) | 0.49 (≈ 0.477 µM) | > 250 | > 250 | 0.5 (≈ 0.486 µM) | 250 (≈ 243 µM) | 0.25 (≈ 0.243 µM) | 1.95 (≈ 1.9 µM) | > 250 | > 250 | < 0.12 | 0.25 (≈ 0.243 µM) | 0.25 (≈ 0.243 µM) | 15.6 (≈ 15.2 µM) | 250 (≈ 243 µM) | 15.6 (≈ 15.2 µM) | soluble | hardly soluble | soluble | antimicrobial activity against a wide range of drug resistant strains [18]: particularly strong antimicrobial activity; solubility in n-hexane and petroleum ether [19]: hardly soluble; solubility in neutral water [19]: slightly soluble; alkalinity [20]: alkaline compounds
2 | CCC1OC(=O)CC(OC(C)=O)C(C)C(OC2OC(C)C(OC3CC(C)(O)C(O)C(C)O3)C(N(C)C)C2O)C(CC=O)CC(C)C(=O)/C=C/C(C)=C/C1COC1OC(C)C(O)C(OC)C1OC (stereo not shown) [3-acetyltylosin] | 0.49 (≈ 0.511 µM) | 0.25 (≈ 0.261 µM) | 0.49 (≈ 0.511 µM) | > 250 | > 250 | 0.25 (≈ 0.261 µM) | 250 (≈ 261 µM) | < 0.12 | 7.81 (≈ 8.15 µM) | > 250 | > 250 | < 0.12 | 0.25 (≈ 0.261 µM) | 0.12 (≈ 0.125 µM) | 250 (≈ 261 µM) | > 250 | 125 (≈ 130 µM) | soluble | hardly soluble | soluble | solubility in n-hexane and petroleum ether [19]: hardly soluble; solubility in neutral water [19]: slightly soluble; alkalinity [20]: alkaline compounds
3 | CCC(=O)OC1CC(=O)OC(CC)C(COC2OC(C)C(O)C(OC)C2OC)/C=C(C)/C=C/C(=O)C(C)CC(CC=O)C(OC2OC(C)C(OC3CC(C)(O)C(O)C(C)O3)C(N(C)C)C2O)C1C (stereo not shown) [3-propionyltylosin] | 0.25 (≈ 0.257 µM) | < 0.12 | 0.25 (≈ 0.257 µM) | > 250 | > 250 | 0.25 (≈ 0.257 µM) | 250 (≈ 257 µM) | < 0.12 | 3.91 (≈ 4.02 µM) | > 250 | > 250 | < 0.12 | 0.25 (≈ 0.257 µM) | 0.12 (≈ 0.123 µM) | 62.5 (≈ 64.3 µM) | > 250 | 62.5 (≈ 64.3 µM) | soluble | hardly soluble | soluble | solubility in n-hexane and petroleum ether [19]: hardly soluble; solubility in neutral water [19]: slightly soluble; alkalinity [20]: alkaline compounds
4 | CCCC(=O)OC1C(C)OC(OC2C(C)OC(OC3C(CC=O)CC(C)C(=O)C=CC(C)=CC(COC4OC(C)C(O)C(OC)C4OC)C(CC)OC(=O)CC(OC(=O)CC)C3C)C(O)C2N(C)C)CC1(C)O (stereo not shown) [3-propionyl-4"-n-butyryltylosin] | 1.95 (≈ 1.87 µM) | 0.49 (≈ 0.47 µM) | 0.49 (≈ 0.47 µM) | > 250 | > 250 | 0.5 (≈ 0.48 µM) | 250 (≈ 240 µM) | 0.25 (≈ 0.24 µM) | 3.91 (≈ 3.75 µM) | > 250 | > 250 | < 0.12 | 0.98 (≈ 0.94 µM) | 0.25 (≈ 0.24 µM) | 31.3 (≈ 30 µM) | 250 (≈ 240 µM) | 15.6 (≈ 15 µM) | soluble | hardly soluble | soluble | antimicrobial activity against a wide range of drug resistant strains [18]: particularly strong antimicrobial activity; solubility in n-hexane and petroleum ether [19]: hardly soluble; solubility in neutral water [19]: slightly soluble; alkalinity [20]: alkaline compounds
5 | CCC1OC(=O)CC(OC(C)=O)C(C)C(OC2OC(C)C(OC3CC(C)(O)C(OC(=O)CC(C)C)C(C)O3)C(N(C)C)C2O)C(CC=O)CC(C)C(=O)C=CC(C)=CC1COC1OC(C)C(O)C(OC)C1OC (stereo not shown) [3-acetyl-4"-isovaleryltylosin] | 1.95 (≈ 1.87 µM) | 0.49 (≈ 0.47 µM) | 0.98 (≈ 0.94 µM) | > 250 | > 250 | 0.5 (≈ 0.48 µM) | 125 (≈ 120 µM) | 0.25 (≈ 0.24 µM) | 3.91 (≈ 3.75 µM) | > 250 | > 250 | 0.25 (≈ 0.24 µM) | 0.49 (≈ 0.47 µM) | 0.49 (≈ 0.47 µM) | 15.6 (≈ 15 µM) | 62.5 (≈ 60 µM) | 3.91 (≈ 3.75 µM) | soluble | hardly soluble | soluble | antimicrobial activity against a wide range of drug resistant strains [18]: particularly strong antimicrobial activity; solubility in n-hexane and petroleum ether [19]: hardly soluble; solubility in neutral water [19]: slightly soluble; alkalinity [20]: alkaline compounds
